Where “and” joins values, the source holds several entries; their conditions need not be identical. Identical values can stand only once. Entries after “also recorded” stand apart in the source; their conditions may differ. Like-named read-outs stand apart in the source and are kept apart here.
Legend:
[1] = biological target: YwfG28–270 (L-type lectin domain of YwfG) (Lactococcus lactis subsp. lactis, UniProt S6FKX6); experiment: Isothermal titration calorimetry (ITC) of sugars, mannan and mannoproteins against YwfG28–270; type: binding, Lactococcus lactis subsp. lactis G50; conditions: for Interaction with YwfG28–270 observed by ITC: 100 μM YwfG28–270, 25°C; for ΔH, enthalpy change / ΔS, entropy change: YwfG28–270
Sequence of YwfG28–270 (L-type lectin domain of YwfG) (S6FKX6 entry or part of it): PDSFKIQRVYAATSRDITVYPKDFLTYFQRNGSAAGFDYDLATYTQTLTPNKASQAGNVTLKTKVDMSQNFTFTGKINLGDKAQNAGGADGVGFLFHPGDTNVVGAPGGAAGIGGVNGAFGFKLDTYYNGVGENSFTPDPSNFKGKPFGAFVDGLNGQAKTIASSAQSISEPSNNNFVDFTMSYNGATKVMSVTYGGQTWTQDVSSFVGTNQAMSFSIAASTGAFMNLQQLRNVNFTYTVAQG
From the text: (§1) A MicroCal iTC200 system (Malvern Panalytical, Almelo, Netherlands) was used to measure enthalpy changes associated with interactions between the YwfG variants and the following yeast cell-wall components: the monosaccharides D-glucose, D-galactose, D-mannose, D-fucose, N-acetyl-D-glucosamine (GlcNAc), and 2-(acetylamino)-2-deoxy-D-galactose (GalNAc) (Sigma-Aldrich); α-1,2-, α-1,3-, α-1,4-, and α-1,6-mannobiose (Dextra Laboratories, Reading, UK); mannan from S. cerevisiae (Sigma-Aldrich); and yeast mannoproteins.
(§2) A solution of YwfG variant (100 μM YwfG28–270, YwfG28–336, YwfG28–511, or MubR4 in 20 mM Tris-HCl [pH 7.5]) was placed in a 200-μL calorimeter cell, and test solution (10 mM for monosaccharides, 2 mM for monosaccharides and mannobioses, 10 mg mL^−1 for yeast mannan, OD280 1.0 for mannoproteins) was loaded into the injection syringe. The test solution was titrated into the sample cell as a sequence of 20 injections of 2-μL aliquots each. All experiments were performed at 25°C.

YwfG28–336 = experiment: ITC of sugars against YwfG28–336; type: binding, Lactococcus lactis subsp. lactis G50; conditions: 100 μM YwfG28–336, 25°C
From the text: as §1, §2

YwfG28–511 = experiment: ITC of sugars against YwfG28–511; type: binding, Lactococcus lactis subsp. lactis G50; conditions: 100 μM YwfG28–511, 25°C
From the text: as §1, §2

[2] = tested on: MubR4 (YwfG residues 860–1034); experiment: ITC of monosaccharides against MubR4; type: binding, Lactococcus lactis subsp. lactis G50; conditions: 100 μM MubR4, 25°C
From the text: as §1, §2

yeast X2180-1A = experiment: Inhibition by sugars of yeast cell aggregation induced by YwfG variants; type: cell-based, Saccharomyces cerevisiae; conditions: sugar 1 mM as printed
Experimental: Saccharomyces cerevisiae X2180-1A was cultured in YPD medium to an OD600 of 0.6.

[3] = tested on: legume (L)-type lectin–like module of SraP; design: method as in PMID 24901708; conditions: cited from earlier work
yeast cells = experiment: Aggregation of yeast cells by lactococcal cells; type: cell-based, Saccharomyces cerevisiae; conditions: 1 mM
Experimental: Lactococcal cells were cultured in CDMG and suspended in PBS to an OD600 of 1.0.

[4] = ITC, 25°C, 100 μM YwfG28–270 in 20 mM Tris-HCl pH 7.5, D-mannose: fixed stoichiometry (N = 1)
[5] = ITC, 25°C, D-mannose: fixed stoichiometry (N = 1)
[6] = ITC, 25°C, 100 μM YwfG28–270 in 20 mM Tris-HCl pH 7.5, D-mannose: fixed stoichiometry (N = 1), read-out: KD, dissociation constant

Row | SMILES | Interaction with YwfG28–270 observed by ITC [1] | Interaction with YwfG28–336 observed by ITC (YwfG28–336) | Interaction with YwfG28–511 observed by ITC (YwfG28–511) | Interaction with MubR4 observed by ITC [2] | Kd [1] [µM] | N (sites), stoichiometry [1, 4] | ΔH, enthalpy change [1, 5] [kcal/mol] | ΔS, entropy change [1, 5] [cal/mol/deg] | Inhibition of aggregation induced by YwfG28–336 (yeast X2180-1A) | Inhibition of aggregation induced by YwfG28–511 (yeast X2180-1A) | Binding to the L-type lectin–like module of SraP [3] | Inhibition of aggregation induced by L. lactis G50 (yeast cells) | Kd [1, 6]
1 | C[C@H]1OC(O)[C@H](O)[C@@H](O)[C@H]1O (stereo partly drawn) [D-fucose] | only combination of variant and monosaccharide that showed an interaction was YwfG28–270 with D-mannose | only combination of variant and monosaccharide that showed an interaction was YwfG28–270 with D-mannose | only combination of variant and monosaccharide that showed an interaction was YwfG28–270 with D-mannose | only combination of variant and monosaccharide that showed an interaction was YwfG28–270 with D-mannose | – | – | – | – | – | – | – | – | –
2 | O=C[C@H](O)[C@@H](O)[C@@H](O)[C@H](O)CO [D-galactose] | only combination of variant and monosaccharide that showed an interaction was YwfG28–270 with D-mannose | only combination of variant and monosaccharide that showed an interaction was YwfG28–270 with D-mannose | only combination of variant and monosaccharide that showed an interaction was YwfG28–270 with D-mannose | only combination of variant and monosaccharide that showed an interaction was YwfG28–270 with D-mannose | – | – | – | – | – | – | – | – | –
3 | OC[C@H]1OC(O)[C@H](O)[C@@H](O)[C@@H]1O (stereo partly drawn) [D-glucose] | only combination of variant and monosaccharide that showed an interaction was YwfG28–270 with D-mannose | only combination of variant and monosaccharide that showed an interaction was YwfG28–270 with D-mannose | only combination of variant and monosaccharide that showed an interaction was YwfG28–270 with D-mannose | only combination of variant and monosaccharide that showed an interaction was YwfG28–270 with D-mannose | – | – | – | – | – | – | – | – | –
4 | OC[C@H]1OC(O)[C@@H](O)[C@@H](O)[C@@H]1O (stereo partly drawn) [D-mannose] | only interaction observed; also recorded: showed an interaction | only combination of variant and monosaccharide that showed an interaction was YwfG28–270 with D-mannose | only combination of variant and monosaccharide that showed an interaction was YwfG28–270 with D-mannose | only combination of variant and monosaccharide that showed an interaction was YwfG28–270 with D-mannose | 500 ± 37 | (1.00) sites | -2.098 ± 0.08359 | 8.07 | inhibited | not by YwfG28–270 or YwfG28–511 was inhibited | – | – | –
5 | CC(=O)N[C@@H](C=O)[C@@H](O)[C@@H](O)[C@H](O)CO [GalNAc, 2-(acetylamino)-2-deoxy-D-galactose] | only combination of variant and monosaccharide that showed an interaction was YwfG28–270 with D-mannose | only combination of variant and monosaccharide that showed an interaction was YwfG28–270 with D-mannose | only combination of variant and monosaccharide that showed an interaction was YwfG28–270 with D-mannose | only combination of variant and monosaccharide that showed an interaction was YwfG28–270 with D-mannose | – | – | – | – | – | – | – | – | –
6 | CC(=O)N[C@@H]1[C@@H](O)[C@H](O)[C@@H](CO)O[C@@H]1O [GlcNAc, N-acetyl-D-glucosamine] | only combination of variant and monosaccharide that showed an interaction was YwfG28–270 with D-mannose | only combination of variant and monosaccharide that showed an interaction was YwfG28–270 with D-mannose | only combination of variant and monosaccharide that showed an interaction was YwfG28–270 with D-mannose | only combination of variant and monosaccharide that showed an interaction was YwfG28–270 with D-mannose | – | – | – | – | – | – | – | – | –
7 | CC(=O)N[C@H]1[C@H]([C@H](O)[C@H](O)CO)OC(O)(C(=O)O)C[C@@H]1O (some centres unmarked) [N-acetylneuraminic acid] | – | – | – | – | – | – | – | – | – | – | specifically binds | – | –
8 | CO[C@H]1O[C@H](CO)[C@@H](O)[C@H](O)[C@@H]1O [methyl α-D-mannoside] | only combination of variant and monosaccharide that showed an interaction was YwfG28–270 with D-mannose | only combination of variant and monosaccharide that showed an interaction was YwfG28–270 with D-mannose | only combination of variant and monosaccharide that showed an interaction was YwfG28–270 with D-mannose | only combination of variant and monosaccharide that showed an interaction was YwfG28–270 with D-mannose | – | – | – | – | inhibited | not by YwfG28–270 or YwfG28–511 was inhibited | – | inhibited | –
9 | OC[C@H]1O[C@H](O[C@@H]2C(O)O[C@H](CO)[C@@H](O)[C@@H]2O)[C@@H](O)[C@@H](O)[C@@H]1O (stereo partly drawn) [α-1,2-mannobiose] | bound | No binding | No binding | – | – | 1.19 ± 0.0104 sites | -5.236 ± 0.06207 | 2.86 | clearly inhibited | clearly inhibited | – | – | 34 µM and 34.4 µM
10 | OC[C@H]1O[C@H](O[C@H]2[C@H](O)[C@@H](CO)OC(O)[C@H]2O)[C@@H](O)[C@@H](O)[C@@H]1O (stereo partly drawn) [α-1,3-mannobiose] | bound | No binding | No binding | – | – | 0.757 ± 0.148 sites | -6.073 ± 1.387 | −3.15 | weakly inhibited | weakly inhibited | – | – | 172 ± 21 µM
11 | OC[C@H]1O[C@H](O[C@H]2[C@H](O)[C@H](O)C(O)O[C@@H]2CO)[C@@H](O)[C@@H](O)[C@@H]1O (stereo partly drawn) [α-1,4-mannobiose] | bound | No binding | No binding | – | – | 1.82 ± 0.171 sites | -2.206 ± 0.3097 | 9.55 | weakly inhibited | weakly inhibited | – | – | 328 ± 91 µM
12 | OC[C@H]1O[C@H](OC[C@H]2O[C@H](O)[C@@H](O)[C@@H](O)[C@@H]2O)[C@@H](O)[C@@H](O)[C@@H]1O [α-1,6-mannobiose] | bound | No binding | No binding | – | – | 1.21 ± 0.0839 sites | -4.235 ± 0.3728 | 2.62 | weakly inhibited | weakly inhibited | – | – | 210 ± 13 µM
